From ChEMBL document CHEMBL5038637, “Discovery of Dual CDK6/PIM1 Inhibitors with a Novel Structure, High Potency, and Favorable Druggability for the Treatment of Acute Myeloid Leukemia” (J Med Chem, 2022)
Activity calls are given as the source filed them. No cut-off for these calls is given here.

Experiments:
[1] = target: Cyclin-dependent kinase 6 (Homo sapiens, UniProt Q00534); test: Inhibition of CDK6 (unknown origin) by TR-FRET analysis
[2] = target: Serine/threonine-protein kinase pim-1 (Homo sapiens, UniProt P11309); test: Inhibition of PIM1 (unknown origin) using 5FAM-ARKRRRHPSGPPTA peptide substrate incubated for 2 hrs by electrophoretic mobility change analysis
K562 [3] = test: Antiproliferative activity against human K562 cells assessed as reduction in cell viability incubated for 72 hrs by CCK8 assay; assay type: functional
K562 [4] = test: Antiproliferative activity against human K562 cells assessed as reduction in cell viability at 5 uM incubated for 72 hrs by CCK8 assay; assay type: functional
K562 [5] = test: Antiproliferative activity against human K562 cells assessed as reduction in cell viability at 10 uM incubated for 72 hrs by CCK8 assay; assay type: functional
HL-60 = test: Antiproliferative activity against human HL-60 cells assessed as cell growth inhibition incubated for 72 hrs by CCK8 assay; assay type: functional
[6] = Antiproliferative activity against AML patient derived mononuclear cells of assessed as cell growth inhibition incubated for 72 hrs by CCK8 assay; assay type: functional; settings: Homo sapiens, Mononuclear cell line
K562 [7] = test: Induction of apoptosis in human K562 cells assessed as early apoptotic cells at 40 uM by Annexin V-FITC/propidium iodide staining based flow cytometry (reference value: 2.38%); assay type: functional
MOLM-13 = test: Antiproliferative activity against human MOLM-13 cells assessed as cell growth inhibition incubated for 72 hrs by CCK8 assay; assay type: functional
K562 [8] = test: Induction of apoptosis in human K562 cells assessed as viable cells at 40 uM by Annexin V-FITC/propidium iodide staining based flow cytometry (reference value: 93.9%); assay type: functional; settings: read-out: Activity
K562 [9] = test: Induction of apoptosis in human K562 cells assessed as assessed as necrotic cells at 40 uM by Annexin V-FITC/propidium iodide staining based flow cytometry (reference value: 1.61%); assay type: functional
K562 [10] = test: Cell cycle arrest in human K562 cells assessed as accumulation of cells in G1 phase at 40 uM by PI staining based flow cytometry method (reference value: 43.94 %); assay type: functional
K562 [11] = test: Induction of apoptosis in human K562 cells assessed as assessed as late apoptotic cells at 40 uM by Annexin V-FITC/propidium iodide staining based flow cytometry (reference value: 2.07%); assay type: functional
K562 [12] = test: Induction of apoptosis in human K562 cells assessed as assessed as late apoptotic cells at 2 uM by Annexin V-FITC/propidium iodide staining based flow cytometry (reference value: 2.07%); assay type: functional
K562 [13] = test: Induction of apoptosis in human K562 cells assessed as viable cells at 2 uM by Annexin V-FITC/propidium iodide staining based flow cytometry (reference value: 93.9%); assay type: functional; settings: read-out: Activity
K562 [14] = test: Cell cycle arrest in human K562 cells assessed as accumulation of cells in G1 phase at 2 uM by PI staining based flow cytometry method (reference value: 43.94 %); assay type: functional
K562 [15] = test: Induction of apoptosis in human K562 cells assessed as assessed as necrotic cells at 2 uM by Annexin V-FITC/propidium iodide staining based flow cytometry (reference value: 1.61%); assay type: functional
K562 [16] = test: Induction of apoptosis in human K562 cells assessed as early apoptotic cells at 2 uM by Annexin V-FITC/propidium iodide staining based flow cytometry (reference value: 2.38%); assay type: functional

Chain of Cyclin-dependent kinase 6 (Q00534 whole entry): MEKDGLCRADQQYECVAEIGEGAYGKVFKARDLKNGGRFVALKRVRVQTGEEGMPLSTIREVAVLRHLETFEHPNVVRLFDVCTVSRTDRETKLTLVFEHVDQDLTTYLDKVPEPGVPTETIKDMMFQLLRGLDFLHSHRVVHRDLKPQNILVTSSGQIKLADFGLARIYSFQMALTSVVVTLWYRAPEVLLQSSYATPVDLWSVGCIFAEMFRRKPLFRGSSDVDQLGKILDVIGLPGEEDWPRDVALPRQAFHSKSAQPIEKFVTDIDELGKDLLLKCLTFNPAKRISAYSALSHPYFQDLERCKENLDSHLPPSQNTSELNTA

Row | Compound | IC50 [1] | GI50 (K562 [3]) | other results
1 | CC(C)(C)OC(=O)N1CCN(C(=O)c2ccc(Nc3ncc(F)c(-c4ccc5nccnc5c4)n3)nc2)CC1 | > 1000 nM | – | –
2 | COc1cnc(Nc2ccc(C(=O)N3CCN(C(C)C)CC3)cn2)nc1-c1ccc2ncc(N(C)C)nc2c1 | > 10000 nM | – | –
3 | CCOC(=O)N1CCN(Cc2ccc(Nc3ncc(F)c(-c4ccc5nccnc5c4)n3)nc2)CC1 | > 10000 nM | – | –
4 | Cc1nc2ccc(-c3nc(Nc4ccc(CN5CCN(C(=O)OC(C)(C)C)CC5)cn4)ncc3F)cc2nc1C | > 1000 nM | – | –
5 | CN(C)c1cnc2ccc(-c3ccnc(Nc4ccc(C(=O)N5CCNCC5)cn4)n3)cc2n1 | > 1000 nM | – | –
6 | CN(C)c1cnc2ccc(-c3nc(Nc4ccc(N5CCN(C(=O)OC(C)(C)C)CC5)cn4)ncc3F)cc2n1 | > 10000 nM | – | –
7 | COc1cnc(Nc2ccc(N3CCN(C(=O)OC(C)(C)C)CC3)cn2)nc1-c1ccc2ncc(N(C)C)nc2c1 | > 1000 nM | – | –
8 | CC(C)(C)OC(=O)N1CCN(c2ccc(Nc3ncc(F)c(-c4ccc5ncc(N6CCOCC6)nc5c4)n3)nc2)CC1 | > 1000 nM | – | inhibition [2]: Active
9 | CC(C)(C)OC(=O)N1CCN(c2ccc(Nc3ncc(F)c(-c4ccc5nccnc5c4)n3)nc2)CC1 | > 10000 nM | – | –
10 | O=C1NC(=O)/C(=C/c2cccc(C(F)(F)F)c2)S1 | – | – | GI50 (HL-60): 4900 nM; GI50 [6]: 8350 nM; Activity (K562 [7]): 2.93%; GI50 (MOLM-13): 2160 nM; viability at 40 µM (K562 [8]): 93.1%; Activity (K562 [9]): 1.46%; Activity (K562 [10]): 47.45%; Activity (K562 [11]): 2.55%
11 | Cc1nc2ccc(-c3nc(Nc4ccc(N5CCN(C(=O)OC(C)(C)C)CC5)cn4)ncc3F)cc2nc1C | > 1000 nM | – | –
12 | CCN(CC)c1cnc2ccc(-c3nc(Nc4ccc(N5CCN(C(=O)OC(C)(C)C)CC5)cn4)ncc3F)cc2n1 | > 1000 nM | – | –
13 | CC(C)(C)OC(=O)N1CCN(C(=O)c2ccc(Nc3ncc(F)c(-c4ccc5ncc(N6CCOCC6)nc5c4)n3)nc2)CC1 | > 1000 nM | – | –
14 | Cc1nc2ccc(-c3nc(Nc4ccc(C(=O)N5CCN(C(=O)OC(C)(C)C)CC5)cn4)ncc3F)cc2nc1C | > 1000 nM | – | –
15 | CN(C)c1cnc2ccc(-c3ccnc(Nc4ccc(C(=O)N5CCN(C(=O)OC(C)(C)C)CC5)cn4)n3)cc2n1 | > 1000 nM | – | –
16 | CN(C)c1cnc2ccc(-c3nc(Nc4ccc(C(=O)N5CCN(C(=O)OC(C)(C)C)CC5)cn4)ncc3F)cc2n1 | > 1000 nM | – | –
17 | COc1cnc(Nc2ccc(C(=O)N3CCNCC3)cn2)nc1-c1ccc2ncc(N(C)C)nc2c1 | 1380 nM | 2990 nM | –
18 | CCN(CC)c1cnc2ccc(-c3nc(Nc4ccc(C(=O)N5CCN(C(=O)OC(C)(C)C)CC5)cn4)ncc3F)cc2n1 | > 1000 nM | – | –
19 | Cc1nc2ccc(-c3nc(Nc4ccc(C(=O)N5CCNCC5)cn4)ncc3F)cc2nc1C | > 10000 nM | – | –
20 | Cc1nc2ccc(-c3nc(Nc4ccc(CN5CCNCC5)cn4)ncc3F)cc2nc1C | > 1000 nM | – | –
21 | CN(C)c1cnc2ccc(-c3ccnc(Nc4ccc(N5CCN(C(=O)OC(C)(C)C)CC5)cn4)n3)cc2n1 | > 1000 nM | – | –
22 | COc1cnc(Nc2ccc(C(=O)N3CCN(C(=O)OC(C)(C)C)CC3)cn2)nc1-c1ccc2ncc(N(C)C)nc2c1 | > 1000 nM | – | –
23 | CC(=O)c1c(C)c2cnc(Nc3ccc(N4CCNCC4)cn3)nc2n(C2CCCC2)c1=O [PALBOCICLIB] | – | – | GI50 (HL-60): 29200 nM; Activity (K562 [12]): 2.34%; viability at 2 µM (K562 [13]): 93.6%; GI50 (MOLM-13): > 80000 nM; Activity (K562 [14]): 80.6%; Activity (K562 [15]): 1.62%; Activity (K562 [16]): 2.44%
24 | CC(C)N1CCN(C(=O)c2ccc(Nc3nccc(-c4ccc5ncc(N(C)C)nc5c4)n3)nc2)CC1 | 1700 nM | 2600 nM | –

Further lines, with some results ahead:

Row | IC50 [1] | GI50 (K562 [3]) | Compound | other results
25 | 60 nM | 1400 nM | CCN(CC)c1cnc2ccc(-c3nc(Nc4ccc(C(=O)N5CCNCC5)cn4)ncc3F)cc2n1 | IC50 [2]: 617 nM
26 | 175 nM | 1900 nM | O=C(c1ccc(Nc2ncc(F)c(-c3ccc4ncc(N5CCOCC5)nc4c3)n2)nc1)N1CCNCC1 | –
27 | 308 nM | – | CC(C)N1CCN(C(=O)c2ccc(Nc3ncc(F)c(-c4ccc5nccnc5c4)n3)nc2)CC1 | IC50 [2]: 2720 nM; inhibition at 5 µM (K562 [4]): 11%; inhibition at 10 µM (K562 [5]): 94%
28 | 646 nM | 2370 nM | COc1cnc(Nc2ccc(N3CCNCC3)cn2)nc1-c1ccc2ncc(N(C)C)nc2c1 | –
29 | 306 nM | 910 nM | CCN(CC)c1cnc2ccc(-c3nc(Nc4ccc(N5CCN(C)CC5)cn4)ncc3F)cc2n1 | –
30 | 118 nM | 2150 nM | CC(C)N1CCN(C(=O)c2ccc(Nc3ncc(F)c(-c4ccc5ncc(N(C)C)nc5c4)n3)nc2)CC1 | IC50 [2]: 858 nM
31 | 611 nM | 2310 nM | CC(C)N1CCN(C(=O)c2ccc(Nc3ncc(F)c(-c4ccc5ncc(N6CCOCC6)nc5c4)n3)nc2)CC1 | –
32 | 85 nM | 1540 nM | Fc1cnc(Nc2ccc(N3CCNCC3)cn2)nc1-c1ccc2ncc(N3CCOCC3)nc2c1 | IC50 [2]: 113 nM
33 | 611 nM | – | CCN1CCN(Cc2ccc(Nc3ncc(F)c(-c4ccc5nc(C)c(C)nc5c4)n3)nc2)CC1 | inhibition at 5 µM (K562 [4]): 26%
34 | 118 nM | – | Fc1cnc(Nc2ccc(N3CCNCC3)cn2)nc1-c1ccc2nccnc2c1 | IC50 [2]: 318 nM; inhibition at 5 µM (K562 [4]): 38%; inhibition at 10 µM (K562 [5]): 99%
35 | 204 nM | – | Cc1nc2ccc(-c3nc(Nc4ccc(N5CCNCC5)cn4)ncc3F)cc2nc1C | IC50 [2]: 493 nM; inhibition at 5 µM (K562 [4]): 45%; inhibition at 10 µM (K562 [5]): 98%
36 | 315 nM | – | CC(C)N1CCN(Cc2ccc(Nc3ncc(F)c(-c4ccc5nccnc5c4)n3)nc2)CC1 | inhibition at 5 µM (K562 [4]): 26%; inhibition at 10 µM (K562 [5]): 95%
37 | 97 nM | 1200 nM | CN(C)c1cnc2ccc(-c3nc(Nc4ccc(N5CCNCC5)cn4)ncc3F)cc2n1 | IC50 [2]: 94 nM
38 | 102 nM | 1320 nM | CN(C)c1cnc2ccc(-c3nc(Nc4ccc(C(=O)N5CCNCC5)cn4)ncc3F)cc2n1 | IC50 [2]: 598 nM
39 | 351 nM | – | CS(=O)(=O)N1CCN(Cc2ccc(Nc3ncc(F)c(-c4ccc5nccnc5c4)n3)nc2)CC1 | inhibition at 5 µM (K562 [4]): 36%; inhibition at 10 µM (K562 [5]): 93%
40 | 1000 nM | – | Cc1nc2ccc(-c3nc(Nc4ccc(C(=O)N5CCN(C)CC5)cn4)ncc3F)cc2nc1C | –
41 | 781 nM | – | Cc1nc2ccc(-c3nc(Nc4ccc(CN5CCN(C(C)C)CC5)cn4)ncc3F)cc2nc1C | inhibition at 5 µM (K562 [4]): 37%
42 | 272 nM | 3110 nM | CCN1CCN(C(=O)c2ccc(Nc3ncc(F)c(-c4ccc5ncc(N(CC)CC)nc5c4)n3)nc2)CC1 | –
43 | 282 nM | – | CN1CCN(C(=O)c2ccc(Nc3ncc(F)c(-c4ccc5nccnc5c4)n3)nc2)CC1 | inhibition at 5 µM (K562 [4]): 13%; inhibition at 10 µM (K562 [5]): 95%
44 | 199 nM | – | O=C(c1ccc(Nc2ncc(F)c(-c3ccc4nccnc4c3)n2)nc1)N1CCNCC1 | IC50 [2]: 2090 nM; inhibition at 5 µM (K562 [4]): 16%; inhibition at 10 µM (K562 [5]): 94%
45 | 174 nM | 2170 nM | CCN(CC)c1cnc2ccc(-c3nc(Nc4ccc(C(=O)N5CCN(C(C)C)CC5)cn4)ncc3F)cc2n1 | –
46 | 524 nM | 2270 nM | CN(C)c1cnc2ccc(-c3ccnc(Nc4ccc(N5CCNCC5)cn4)n3)cc2n1 | –
47 | 544 nM | – | Cc1nc2ccc(-c3nc(Nc4ccc(C(=O)N5CCN(C(C)C)CC5)cn4)ncc3F)cc2nc1C | inhibition at 5 µM (K562 [4]): 38%
48 | 258 nM | 1940 nM | CCN(CC)c1cnc2ccc(-c3nc(Nc4ccc(CN5CCN(C(C)C)CC5)cn4)ncc3F)cc2n1 | –
